Patent publication US20240158446A1, “CYCLIC COMPOUND HAVING SELECTIVE INHIBITORY ACTION ON KRAS OVER HRAS AND NRAS” (CHUGAI SEIYAKU KABUSHIKI KAISHA, priority 2021, published 2024)
Where two headings read alike, the source gives them in different places.

How the values were obtained:
[1] = target: GDP-bound KRAS wild-type protein (Homo sapiens, UniProt P01116); test: Binding to KRAS by surface plasmon resonance (SPR), Single Cycle Kinetics; conditions: SPR, Single Cycle Kinetics, GDP-bound KRAS wild-type protein, read-out: KRAS KD
[2] = target: GDP-bound NRAS wild-type protein (Homo sapiens, UniProt P01111); test: Binding to NRAS by surface plasmon resonance (SPR), Single Cycle Kinetics; conditions: SPR; for NRAS/KRAS (ratio of KD value for NRAS to KD value for KRAS): GDP-bound NRAS wild-type protein vs GDP-bound KRAS wild-type protein, KD ratio class; for NRAS/KRAS (KD ratio): ratio of KD for GDP-bound NRAS wild-type protein to KD for KRAS
[3] = target: GDP-bound HRAS wild-type protein (Homo sapiens, UniProt P01112); test: Binding to HRAS by surface plasmon resonance (SPR), Single Cycle Kinetics; conditions: SPR; for HRAS/KRAS (ratio of KD value for HRAS to KD value for KRAS): GDP-bound HRAS wild-type protein vs GDP-bound KRAS wild-type protein, KD ratio class; for HRAS/KRAS (KD ratio): ratio of KD for GDP-bound HRAS wild-type protein to KD for KRAS
GDP-bound HRAS wild-type protein, sequence (P01112 whole entry): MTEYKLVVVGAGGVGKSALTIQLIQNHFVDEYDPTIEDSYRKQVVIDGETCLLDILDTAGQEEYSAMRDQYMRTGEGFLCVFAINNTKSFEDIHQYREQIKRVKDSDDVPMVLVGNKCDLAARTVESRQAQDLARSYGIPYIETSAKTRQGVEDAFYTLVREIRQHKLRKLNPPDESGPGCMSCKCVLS

GDP-bound KRAS wild-type protein, sequence (P01116 whole entry): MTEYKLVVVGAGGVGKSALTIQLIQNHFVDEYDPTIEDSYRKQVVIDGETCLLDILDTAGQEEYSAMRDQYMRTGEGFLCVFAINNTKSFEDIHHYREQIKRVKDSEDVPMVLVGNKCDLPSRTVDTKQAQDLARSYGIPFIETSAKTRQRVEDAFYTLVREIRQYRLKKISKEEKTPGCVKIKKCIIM
GDP-bound NRAS wild-type protein, sequence (P01111 whole entry): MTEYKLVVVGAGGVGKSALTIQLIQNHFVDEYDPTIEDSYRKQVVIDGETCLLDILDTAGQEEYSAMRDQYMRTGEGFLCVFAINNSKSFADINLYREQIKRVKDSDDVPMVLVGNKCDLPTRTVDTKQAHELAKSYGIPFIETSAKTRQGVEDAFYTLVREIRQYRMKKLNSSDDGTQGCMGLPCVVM

SMILES	Kd ([1]; 1:1 binding model)	Kd [1]	NRAS/KRAS (ratio of KD value for NRAS to KD value for KRAS) [2]	HRAS/KRAS (ratio of KD value for HRAS to KD value for KRAS) [3]	NRAS/KRAS (KD ratio) [2]	HRAS/KRAS (KD ratio) [3]
CCO[C@@H]1C[C@H]2C(=O)NC3(CC(C)(C)C3)C(=O)N(C)[C@@H](C(CC)CC)C(=O)N(C)C(C(C)C)CC(=O)N(C)[C@@H](CC3CC3)C(=O)N[C@@H]([C@@H](C)CC)C(=O)N(C)CC(=O)N(C)[C@H]3C/C=C\CCN(C3=O)[C@@H](Cc3ccc(C(F)(F)F)cc3)C(=O)N(C)CC(=O)N[C@@H](CCc3cc(F)c(C(F)(F)F)c(F)c3)C(=O)N2C1 (stereo partly drawn) [PP1593]	4.3 nM		A (a compound having 10 or more and less than 20 is denoted as A)	A (a compound having 10 or more and less than 20 is denoted as A)		
CCO[C@@H]1C[C@H]2C(=O)NC3(CC(C)(C)C3)C(=O)N(C)[C@@H](C3CCCC3)C(=O)N(C)[C@H](C(C)C)CC(=O)N(C)[C@@H](CC)C(=O)N[C@@H]([C@@H](C)CC)C(=O)N(C)CC(=O)N(C)[C@H]3C/C=C\CCN(C3=O)[C@@H](CC3CCCCC3)C(=O)N(C)CC(=O)N[C@@H](CCc3cc(F)c(C(F)(F)F)c(F)c3)C(=O)N2C1 [PP1603]	5.3 nM		B (a compound having 3 or more and less than 10 is denoted as B)	B (a compound having 3 or more and less than 10 is denoted as B)		
CCO[C@@H]1C[C@H]2C(=O)NC3(CC(C)(C)C3)C(=O)N(C)[C@@H](C(CC)CC)C(=O)N3CCC[C@@H]3CC(=O)N(C)[C@@H](CC)C(=O)N[C@@H]([C@@H](C)CC)C(=O)N(C)CC(=O)N(C)[C@H]3C/C=C\CCN(C3=O)[C@@H](Cc3ccc(C(F)(F)F)cc3)C(=O)N(C)CC(=O)N[C@@H](CCc3cc(F)c(C(F)(F)F)c(F)c3)C(=O)N2C1 [PP1605]	0.79 nM		A (a compound having 10 or more and less than 20 is denoted as A)	A (a compound having 10 or more and less than 20 is denoted as A)		
CCO[C@@H]1C[C@H]2C(=O)NC3(CC(C)(C)C3)C(=O)N(C)[C@@H](C3CCCC3)C(=O)N(C)[C@H](C(=O)N(C)CC)CC(=O)N(C)[C@H]3CCCC/C=C/c4ccc(cc4)C[C@@H](C(=O)N(C)CC(=O)N[C@@H](CCc4ccc(C(F)(F)F)c(OC)c4)C(=O)N2C1)N1CC/C=C\C[C@@H](C1=O)N(C)C(=O)CN(C)C(=O)[C@H]([C@@H](C)CC)NC3=O [PP1830, (1S,7S,11R,13S,19S,22S,26S,29S,35S,37Z,47E)-19-cyclopentyl-11-ethoxy-N-ethyl-7-[2-[3-methoxy-4-(trifluoromethyl)phenyl]ethyl]-N,3,3′,3′,18,21,25,31,34-nonamethyl-29-[(1S)-1-methylpropyl]-2,5,8,14,17,20,24,27,30,33,55-undecaoxo-spiro[3,6,9,15,18,21,25,28,31,34,41-undecazapentacyclo[24.15.11.2^43,46.1^35,41.0^9,13]pentapentaconta-37,43(54),44,46(53),47-pentaene-16,1′-cyclobutane]-22-carboxamide]		0.054 nM			A (a compound having 10 or more and less than 20 is denoted as A)	B (a compound having 3 or more and less than 10 is denoted as B)
CCO[C@@H]1C[C@H]2C(=O)NC3(CC(C)(C)C3)C(=O)N(C)[C@@H](C3CCCC3)C(=O)N(C)[C@H](C(=O)N(C)C)CC(=O)N(C)[C@H]3CCCC/C=C/c4ccc(cc4)C[C@@H](C(=O)N(C)CC(=O)N[C@@H](CCc4cc(F)c(C(F)(F)F)c(F)c4)C(=O)N2C1)N1CC/C=C\C[C@@H](C1=O)N(C)C(=O)CN(C)C(=O)[C@H]([C@@H](C)CC)NC3=O [PP1831]		0.025 nM			A (a compound having 10 or more and less than 20 is denoted as A)	A (a compound having 10 or more and less than 20 is denoted as A)
CCO[C@@H]1C[C@H]2C(=O)NC3(CC(C)(C)C3)C(=O)N(C)[C@@H](C3CCCC3)C(=O)N(C)[C@H](C(=O)N(C)C)CC(=O)N(C)[C@H]3CCCC/C=C/c4ccc(cc4)C[C@@H](C(=O)N(C)CC(=O)N[C@@H](CCc4ccc(C(F)(F)F)c(OC)c4)C(=O)N2C1)N1CC/C=C\C[C@@H](C1=O)N(C)C(=O)CN(C)C(=O)[C@H]([C@@H](C)CC)NC3=O [PP1832]		0.04 nM			B (a compound having 3 or more and less than 10 is denoted as B)	B (a compound having 3 or more and less than 10 is denoted as B)
CCO[C@@H]1C[C@H]2C(=O)NC3(CCC3)C(=O)N(C)[C@@H](C3CCCC3)C(=O)N(C)[C@H](C(=O)N(C)CC)CC(=O)N(C)[C@H]3CCC/C=C/c4ccc(cc4)C[C@@H](C(=O)N(C)CC(=O)N[C@@H](CCc4ccc(C(F)(F)F)c(OC)c4)C(=O)N2C1)N1CC/C=C\C[C@@H](C1=O)N(C)C(=O)CN(C)C(=O)[C@H]([C@@H](C)CC)NC3=O [PP1834]		0.065 nM			A (a compound having 10 or more and less than 20 is denoted as A)	B (a compound having 3 or more and less than 10 is denoted as B)

Second part, led by results:

Kd ([1]; 1:1 binding model)	Kd [1]	SMILES	NRAS/KRAS (ratio of KD value for NRAS to KD value for KRAS) [2]	HRAS/KRAS (ratio of KD value for HRAS to KD value for KRAS) [3]	NRAS/KRAS (KD ratio) [2]	HRAS/KRAS (KD ratio) [3]
0.29 nM		CCO[C@@H]1C[C@H]2C(=O)NC3(CCC3)C(=O)N(C)[C@@H](C3CCCC3)C(=O)N(C)C(C(C)C)CC(=O)N(C)[C@@H](CC)C(=O)N[C@@H]([C@@H](C)CC)C(=O)N(C)CC(=O)N(C)[C@H]3C/C=C\CCN(C3=O)[C@@H](Cc3ccc(C(F)(F)F)cc3)C(=O)N(C)CC(=O)N[C@@H](CCc3cc(F)c(C(F)(F)F)c(F)c3)C(=O)N2C1 (stereo partly drawn) [PP1590]	A (a compound having 10 or more and less than 20 is denoted as A)	B (a compound having 3 or more and less than 10 is denoted as B)		
4.6 nM		CCO[C@@H]1C[C@H]2C(=O)NC3(CC(F)(F)C3)C(=O)N(C)[C@@H](C(CC)CC)C(=O)N(C)C(C(C)C)CC(=O)N(C)[C@@H](CC)C(=O)N[C@@H]([C@@H](C)CC)C(=O)N(C)CC(=O)N(C)[C@H]3C/C=C\CCN(C3=O)[C@@H](Cc3ccc(C(F)(F)F)cc3)C(=O)N(C)CC(=O)N[C@@H](CCc3cc(F)c(C(F)(F)F)c(F)c3)C(=O)N2C1 (stereo partly drawn) [PP1591]	A (a compound having 10 or more and less than 20 is denoted as A)	A (a compound having 10 or more and less than 20 is denoted as A)		
2.3 nM		CCO[C@@H]1C[C@H]2C(=O)NC3(CCC3)C(=O)N(C)[C@@H](C(CC)CC)C(=O)N(C)C(C(C)C)CC(=O)N(C)[C@@H](CC3CC3)C(=O)N[C@@H]([C@@H](C)CC)C(=O)N(C)CC(=O)N(C)[C@H]3C/C=C\CCN(C3=O)[C@@H](Cc3ccc(C(F)(F)F)cc3)C(=O)N(C)CC(=O)N[C@@H](CCc3cc(F)c(C(F)(F)F)c(F)c3)C(=O)N2C1 (stereo partly drawn) [PP1595]	A (a compound having 10 or more and less than 20 is denoted as A)	A (a compound having 10 or more and less than 20 is denoted as A)		
0.76 nM		CCO[C@@H]1C[C@H]2C(=O)NC3(CC(F)(F)C3)C(=O)N(C)[C@@H](C3CCCC3)C(=O)N(C)C(C(C)C)CC(=O)N(C)[C@@H](CC3CC3)C(=O)N[C@@H]([C@@H](C)CC)C(=O)N(C)CC(=O)N(C)[C@H]3C/C=C\CCN(C3=O)[C@@H](Cc3ccc(C(F)(F)F)cc3)C(=O)N(C)CC(=O)N[C@@H](CCc3cc(F)c(C(F)(F)F)c(F)c3)C(=O)N2C1 (stereo partly drawn) [PP1598]	A (a compound having 10 or more and less than 20 is denoted as A)	A (a compound having 10 or more and less than 20 is denoted as A)		
2.1 nM		CCO[C@@H]1C[C@H]2C(=O)NC3(CCC3)C(=O)N(C)[C@@H](C3CCCC3)C(=O)N(C)[C@H](C(C)C)CC(=O)N(C)[C@@H](CC)C(=O)N[C@@H]([C@@H](C)CC)C(=O)N(C)CC(=O)N(C)[C@H]3C/C=C\CCN(C3=O)[C@@H](CC3CCCCC3)C(=O)N(C)CC(=O)N[C@@H](CCc3cc(F)c(C(F)(F)F)c(F)c3)C(=O)N2C1 [PP1601]	B (a compound having 3 or more and less than 10 is denoted as B)	A (a compound having 10 or more and less than 20 is denoted as A)		
0.37 nM		CCO[C@@H]1C[C@H]2C(=O)NC3(CC(C)(C)C3)C(=O)N(C)[C@@H](C3CCCC3)C(=O)N3CCC[C@@H]3CC(=O)N(C)[C@@H](CC)C(=O)N[C@@H]([C@@H](C)CC)C(=O)N(C)CC(=O)N(C)[C@H]3C/C=C\CCN(C3=O)[C@@H](Cc3ccc(C(F)(F)F)cc3)C(=O)N(C)CC(=O)N[C@@H](CCc3cc(F)c(C(F)(F)F)c(F)c3)C(=O)N2C1 [PP1606]	B (a compound having 3 or more and less than 10 is denoted as B)	B (a compound having 3 or more and less than 10 is denoted as B)		
	0.057 nM	CCO[C@@H]1C[C@H]2C(=O)NC3(CC(C)(C)C3)C(=O)N(C)[C@@H](C3CCCC3)C(=O)N(C)[C@H](C(=O)N(C)C)CC(=O)N(C)[C@@H](CC(C)C)C(=O)N[C@@H]([C@@H](C)CC)C(=O)N(C)CC(=O)N(C)[C@H]3C/C=C\CCN(C3=O)[C@@H](Cc3ccc(C(F)(F)F)cc3)C(=O)N(C)CC(=O)N[C@@H](CCc3cc(F)c(C(F)(F)F)c(F)c3)C(=O)N2C1 [PP1650, (2S,8S,12R,14S,20S,23S,27S,30S,36S,38Z)-20-cyclopentyl-8-[2-[3,5-difluoro-4-(trifluoromethyl)phenyl]ethyl]-12-ethoxy-27-isobutyl-N,N,3′,3′,4,19,22,26,32,35-decamethyl-30-[(1S)-1-methylpropyl]-3,6,9,15,18,21,25,28,31,34,42-undecaoxo-2-[[4-(trifluoromethyl)phenyl]methyl]spiro[1,4,7,10,16,19,22,26,29,32,35-undecazatricyclo[34.5.1.0^10,14]dotetracont-38-ene-17,1′-cyclobutane]-23-carboxamide]			A (a compound having 10 or more and less than 20 is denoted as A)	A (a compound having 10 or more and less than 20 is denoted as A)
